Test results reported in patent US10428056B2, “Heterocyclic compound” (Takeda Pharmaceutical Company Limited, priority 2015, dated 2019).

Columns and labels:
[1] = target: T1, human M1 receptor (hCHRM1) (Homo sapiens, UniProt P11229); experiment: Measurement of M1 receptor positive allosteric modulator (M1PAM) activity, Ca fluorescence by FDSS/μ cell (Experimental Example 2); assay type: cell-based; settings: inflection point of concentration-dependent curve, CHO-K1 cells expressing hCHRM1, acetylcholine at EC20 (0.8-1.0 nM), read-out: IP value
T1 construct: expressed in transfected cells; host or cells: CHO-K1
T1 sequence (P11229 1-460): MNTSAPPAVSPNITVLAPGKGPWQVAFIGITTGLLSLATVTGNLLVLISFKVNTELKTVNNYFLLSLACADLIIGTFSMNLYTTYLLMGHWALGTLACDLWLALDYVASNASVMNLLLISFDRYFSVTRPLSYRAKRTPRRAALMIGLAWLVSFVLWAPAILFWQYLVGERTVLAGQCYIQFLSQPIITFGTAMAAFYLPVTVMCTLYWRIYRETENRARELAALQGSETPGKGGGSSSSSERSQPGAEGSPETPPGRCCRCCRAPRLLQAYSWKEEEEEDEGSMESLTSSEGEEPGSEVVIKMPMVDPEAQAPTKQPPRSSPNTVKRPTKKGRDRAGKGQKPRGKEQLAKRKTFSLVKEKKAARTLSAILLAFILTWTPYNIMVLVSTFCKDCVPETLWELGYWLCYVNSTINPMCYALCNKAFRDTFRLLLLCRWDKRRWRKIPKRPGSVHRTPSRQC
Experimental: (§1) Measurement of M1 Receptor Positive Allosteric Modulator (M1PAM) Activity
(§2) The activity of a test compound in the presence of acetylcholine at EC20 concentration (final concentration 0.8-1.0 nM), which affords an action corresponding to about 20% of the maximum activity, was measured as PAM activity. The method is as follows. CHO-K1 cells stably expressing a human M1 receptor (hCHRM1) were plated on a 384-well black clear bottom plate (BD Falcon) at 5,000 cells/well, and cultured in an incubator at 37° C., 5% CO2 for 1 day. […] A test compound prepared by diluting with assay buffer containing 3.2-4.0 nM acetylcholine was added at 10 μL/well, and the fluorescence was measured by FDSS/μ cell (Hamamatsu Photonics K.K.) for 1 min every 1 second. With the definition that the amount of change in the fluorescence on addition of acetylcholine (final concentration 1 μM) is 100% and that on addition of DMSO instead of a test compound is 0%, the activity (%) of the test compound was calculated, and the inflection point in the concentration-dependent curve of the test compound was calculated as IP values.

[2] = tested on: Scopolamine-induced memory deficits models; experiment: Novel object recognition test (Experimental Example 4); assay type: in vivo, male Long-Evans rats; settings: 10 mg/kg oral single dose, scopolamine 0.1 mg/kg s.c.; retention trial 4 hr after acquisition; mean±standard error
Experimental: Novel Object Recognition Test Novel object recognition test is comprised of two trials called the acquisition and the retention trials. Scopolamine-induced memory deficits models were used for the test, and animals used were male Long-Evans rats. On the day before the test, for acclimation, the rats were allowed to freely move about the test box (40×40×50 cm) for 10 minutes. On the test day, the rats were acclimated to the test room for about 1 hr prior to the test. The test compounds were orally administered to the rats in a single dose a given time before the acquisition trial. For induction of learning and memory deficits, scopolamine (0.1 mg/kg) was subcutaneously administered into the rats 30 min before the acquisition trial. For the acquisition trial, two identical objects (A1, A2) were placed in the test box. The rats were put in the test box for 3 min, and the duration exploring each object was measured. The retention trial was performed 4 hr after the acquisition trial. […] The duration for exploring each object in the acquisition trial and the retention trial was measured, and the exploration rate of novel object was calculated. The exploration rate of novel object was expressed as (the duration exploring the novel object)/[(the duration exploring the novel object)+(the duration exploring the familiar object)]×100(%) at mean±standard error.

[3] = target: T1, human M1 receptor (hCHRM1); experiment: Measurement of M1 receptor positive allosteric modulator (M1PAM) activity, Ca fluorescence by FLIPRtetra (Experimental Example 1); assay type: cell-based; settings: inflection point of concentration-dependent curve, CHO-K1 cells expressing hCHRM1, acetylcholine at EC20 (0.8-1.0 nM), read-out: IP value
Experimental: as §1
as §2, with “FLIPRtetra (Molecular Devices)” for “FDSS/μ cell (Hamamatsu Photonics K.K.)”

With Cc1c(Cc2ccc(-n3cccn3)nc2)cc2c(c1Cl)OCN([C@H]1CCC[C@@H]1O)C2=O (single isomer, unassigned) [Example 97, 8-chloro-3-(trans-2-hydroxycyclopentyl)-7-methyl-6-((6-(1H-pyrazol-1-yl)pyridin-3-yl)methyl)-2,3-dihydro-4H-1,3-benzoxazin-4-one] as the compound, how does the EC50 [1] read?
Its EC50 is 6.8 nM.

Which “exploration rate of novel object (%)” value [2] does the source give for Cc1ccc(Cc2cc3c(cc2C)OCN([C@H]2CCCC[C@@H]2O)C3=O)cn1 (single isomer, unassigned) [Example 28, 3-(trans-2-hydroxycyclohexyl)-7-methyl-6-((6-methylpyridin-3-yl)methyl)-2,3-dihydro-4H-1,3-benzoxazin-4-one] here?
The value was 56.0±2.2%.

Cc1cc2c(cc1Cc1ccc(Cl)nc1)C(=O)N([C@H]1CCCC[C@@H]1O)CO2 (relative stereo) [Example 62, 6-((6-chloropyridin-3-yl)methyl)-3-(trans-2-hydroxycyclohexyl)-7-methyl-2,3-dihydro-4H-1,3-benzoxazin-4-one] was tested. Which EC50 [3] did it give?
The EC50 was 27 nM.
